Values of other authors, collected in US20080131879A1, “Detection of Subjects at Risk For Chd By a Genotype Evaluation Associated With Serum Plant Sterols Enabling Individualized (Drug) Treatment on Demand” (University Van Maastricht, priority 2004, published 2008).

Conditions: intestinal absorption from diet

Row | SMILES | Absorption [%]
1 | CC(C)[C@H](C)CC[C@@H](C)[C@H]1CC[C@H]2[C@@H]3CC=C4C[C@@H](O)CC[C@]4(C)[C@H]3CC[C@]12C [campesterol] | 1.89
2 | CC[C@H](CC[C@@H](C)[C@H]1CC[C@H]2[C@@H]3CC=C4C[C@@H](O)CC[C@]4(C)[C@H]3CC[C@]12C)C(C)C [sitosterol] | 0.51
